# From patent publication US20250009843A1, “COMPOSITIONS AND METHODS FOR TREATMENTS BY MODULATION OF EXCITABLE TISSUES ACTIVITIES, AND FOR ANTIMICROBIAL APPLICATIONS” (priority 2021, published 2025)
# Tests used:
# [1] = tested on: dorsal root ganglia (DRG) (sensory) neurons; assay: Single cell patch clamp on DRG neurons (sodium current, action potentials); format: cell-based, rat
# Protocol: Dorsal Root Ganglia (DRG) sensory neurons were extracted from […] (Cdram). The DRG explants were dissected from the cervical and thoracic regions of the spine of neonatal rat pups (P5) and placed in cold HBSS (lx) without Ca^2+/Mg^2+ (Invitrogen, USA). After cleaning the remnants of peripheral nerve processes, DRGS were seeded in 12-well glass-coated laminin plates. Cells were feed every 2/3 days and they were processed for single cell patch clamping.
# Whole cell patch clamp configuration was used to record from 100 day iPSC derived neurons and DRG neurons. […]
# Recordings were made using the EPC10 patch clamp amplifier from HEKA. Voltage-dependent Na^+ and K^+ currents were recorded in voltage clamp mode from a holding potential of −70 mV; voltage step depolarization was applied up to +20 mV in 10 mV increments and recorded for 200 ms. All data were recorded unfiltered for voltage and current clamp recording at 50.0 kHz and 20.0 kHz, respectively.
# Intrinsic firing properties of neurons were recorded in current clamp mode, with step current injections from a holding value of −5 pA up to +45 pA, for 500 ms, in 10 pA increments. Spontaneous action potential (AP) was recorded in current clamp mode at zero current injection (resting membrane potential) just after whole cell configuration was achieved. […]
# [2] = tested on: DRG: dorsal root ganglion; hChon: human normal chondrocytes; OA: human OA chondrocytes; format: cell-based; details: 24-72 hours; 2.5 mg/ml of HA or equivalent by gram:gram ratio; three cell types
# Protocol: (§1) FIG. 4: Data of the effect of various peptide drug embodiments and peptide alone on metabolic activity and viability of cell types (DRG: dorsal root ganglion; hChon: human normal chondrocytes; OA: human OA chondrocytes). n=3 in all cases; all tested at 2.5 mg/ml of HA or equivalent using gram:gram ratio (See Table). Details on test materials given in below table. […] Panel B: Viability assessed using Live/Dead assay. No significant difference between peptide drug at 24-72 hours in DRGs compared to control.
# DRGs = format: cell-based; details: 24-72 hours, 2.5 mg/ml of HA or equivalent
# Protocol: as §1
# cortical neurons = assay: Patch clamp of cortical neurons (sodium current); format: cell-based; details: 1 μg/ml; FIG. 10C
# E. coli [3] = assay: Optical density assay of antimicrobial effect; format: cell-based; details: for E. coli growth (optical density as percentage of control): 16 hours incubation, polymers and conjugates 1-5 mg/ml, PLA 0.01-0.5 mg/ml
# Protocol: As an example of this Hydrobloc prototypes and PLA 1.9 kDa at various concentrations were incubated with E. coli in wells. If microbial growth occurs, then the optical density increases reflecting the colloidal nature of bacterial cells. As a control a blank well is prepared containing growth medium and saline. The results after 16 hours incubation are presented in the figure as a percentage of control. Panel A: Optical density results for various Hydrobloc prototypes and related test materials.
# (§2) Hyaluronic acid (2.2-2.4 MDa) or PEG (10 kDa) was used as base polymer conjugated to Poly-L-Arginine (1.9 kDa or 15-70 kDa) as the AMP in varying mass/mass ratios of conjugation, and at different concentrations. Controls included empirical admixtures of the polymer/AMP as well as just the polymer or AMP.
# Principle: Antimicrobial test materials added to wells at various concentrations, wells seeded with microbe. Microbial growth increase the optical density (OD)—assay monitors ability of microbe to grow in presence of test material. […] The microbe used was E. Coli. The results are shown in FIG. 13 with the values presented as a percentage of control (blank). […] The OD is ˜≤0.0 at all concentrations (0.01-0.5 mg/ml). Overall statistical significance is seen with 0.25 mg/ml and 5 mg/ml.
# DRG cells = assay: Microelectrode Array (MEA) electrical activity of capsaicin-stimulated DRG cells; format: cell-based; details: dose range 10-1000 μg/ml; FIG. 3B
# [4] = tested on: TRPV1 pathway in cortical neurons; assay: Calcium imaging of cortical neurons (capsaicin, glutamic acid); format: cell-based; details: 1 μg/ml
# Protocol: TRPV1 channels on neurons open in response to stimuli like capsaicin. Once open cations like calcium flow into the cell, which triggers action potentials and the sensation of pain. Cells tested were cortical neurons, n=3 unless noted. Panel A: Calcium imaging is used to measure calcium flow across neural cell membranes. Cells treated in sequence with no chemical (control), PLA (1.9 kDa at 1 μg/ml), capsaicin, and then glutamic acid. […] This is an effect seen by TRPV1 agonists that are used as analgesics such as capsaicin.
# S. aureus = assay: Kirby-Bauer disk diffusion susceptibility test; format: cell-based; details: BP12P03 1-10 mg/ml; PLA 0.5 mg/ml
# Protocol: as §2
# (§3) Principle: Disks were saturated with antimicrobial test material and place on agar seeded with microbe. test material diffuses out and after incubation diameter of the clear zone is proportional to potency against the microbe. BP12P03 at 1 mg/ml −10 mg/ml; PLA (1.9 kDA) at 0.5 mg/ml were tested. Microbes used were S. aureus, S. epidermis and E. coli.
# E. coli [5] = assay: Kirby-Bauer disk diffusion susceptibility test; format: cell-based; details: BP12P03 1-10 mg/ml; PLA 0.5 mg/ml
# Protocol: as §2, §3
# S. epidermis = assay: Kirby-Bauer disk diffusion susceptibility test; format: cell-based; details: BP12P03 1-10 mg/ml; PLA 0.5 mg/ml
# Protocol: as §2, §3
# [6] = tested on: dorsal root ganglia (DRG) (sensory) neurons; details: literature value; cited from earlier work
compound,measurement,setting,value
"NC1=N[C@H](O)[C@H]2[C@H]3O[C@]4(O)O[C@@H]([C@@H](O)[C@@]2(N1)[C@@H]4O)[C@]3(O)CO [TTX, tetrodotoxin]",Percentage reduction of sodium current (control),[1],approximately 99%
Poly-L-arginine hydrochloride [Hydrobloc C01],Metabolic activity (Alamar Blue),[2],negatively affect metabolic activity
same,Viability (Live/Dead),DRGs,negatively affect viability
Poly-L-Arginine [PLA 1.9 kDa],Block of sodium current,cortical neurons,time dependent effect—getting stronger with time
same,E. coli growth (optical density as percentage of control),E. coli [3],potent giving quantifiable antimicrobial effects at all concentrations tested
same,E. coli growth (optical density as percentage of control),E. coli [3]; listed as PLA,very potent
same,Optical density (OD),E. coli [3]; all concentrations (0.01-0.5 mg/ml),≤ 0.0
same,Concentration at which most suppression of spike count is seen,DRG cells,10 µg/mL
same,Viability (Live/Dead),DRGs,best viability profile
same,Capsaicin (TRPV1 pathway) response,"[4]; cortical neurons, n=3",blocks the capsaicin (TRPV1 pathway response)
same,Glutamate response,[4]; glutamic acid after capsaicin,glutamate response is unaffected
same,Activity in disk diffusion,S. aureus,activity against all tested species
same,Activity in disk diffusion,E. coli [5],activity against all tested species
same,Activity in disk diffusion,S. epidermis,activity against all tested species
CCN(CC)CC(=O)Nc1c(C)cccc1C [Lidocaine],Reduction of sodium current reported in the literature,[6],38%
